In US4426389A, “Derivatives of clavulanic acid, a process for their preparation and their use” (Beecham Group Limited, priority 1979, dated 1984):
Converted amounts (≈) assume the structure as drawn.

How the values were obtained:
Assay type in all cases: cell-based
[1] = test system: Staph. aureus Russell; test: MIC by standard microtitre technique (dilution in tryptone soy broth), Staph. aureus Russell; conditions: Staphylococcus aureus, alone
Protocol: (§1) By a standard microtitre technique the MIC values for ampicillin alone, ampicillin and 9-N-(2'-cyanoethyl)aminodeoxyclavulanic acid and 9-N-(2'-cyanoethyl)aminodeoxyclavulanic acid alone were determined.
(§2) MIC μg/ml (dilution in tryptone soy broth)

[2] = test system: Kleb. aerogenes E70; test: MIC by standard microtitre technique (dilution in tryptone soy broth), Kleb. aerogenes E70; conditions: Klebsiella aerogenes, alone
[3] = test system: E. coli JT39; test: MIC by standard microtitre technique (dilution in tryptone soy broth), E. coli JT39; conditions: Escherichia coli, alone
Protocol: as §1, §2

[4] = test system: Staph. aureus Oxford; test: Antibacterial activity, MIC, Staph. aureus Oxford; conditions: Staphylococcus aureus
From the text: (§3) Antibacterial activity of 9-N-(2'-cyanoethyl)aminodeoxyclavulanic acid, MIC μg/ml.

[5] = test system: Staph. aureus Russell; test: Antibacterial activity, MIC, Staph. aureus Russell; conditions: Staphylococcus aureus
From the text: as §3

[6] = test system: Strep. Pyogenes; test: Antibacterial activity, MIC, Strep. Pyogenes; conditions: Streptococcus pyogenes
From the text: as §3

[7] = test system: Strep. Pneumoniae; test: Antibacterial activity, MIC, Strep. Pneumoniae; conditions: Streptococcus pneumoniae
From the text: as §3

| SMILES | MIC [1] | MIC [2] | MIC [3] | MIC [4] | MIC [5] | MIC [6] | MIC [7] |
| --- | --- | --- | --- | --- | --- | --- | --- |
| CC1(C)S[C@@H]2[C@H](NC(=O)[C@H](N)c3ccccc3)C(=O)N2[C@H]1C(=O)O [Ampicillin, ampicillin, reference compound] | 500 to 1000 µg/mL (≈ 1430 to 2860 µM) | 500 to 1000 µg/mL (≈ 1430 to 2860 µM) |  |  |  |  |  |
| N#CCCNC/C=C1\O[C@@H]2CC(=O)N2[C@H]1C(=O)O [9-N-(2'-Cyanoethyl)aminodeoxyclavulanic acid] | 16 µg/mL (≈ 63.7 µM) | 250 µg/mL (≈ 995 µM) | 31 µg/mL (≈ 123 µM) | 10 to 20 µg/mL (≈ 39.8 to 79.6 µM) | 10 to 20 µg/mL (≈ 39.8 to 79.6 µM) | 10 µg/mL (≈ 39.8 µM) | 5 µg/mL (≈ 19.9 µM) |
